Drawing on ChEMBL document CHEMBL1201862, “PubChem BioAssay data set” (2004), this text covers IC50, AC50 and EC50 for three compounds.

Type in all cases: functional
Assay [1] addresses Protein Wnt-3a (Mus musculus, UniProt P27467). The assay can be described thus: antagonism of Wnt3a pathway luciferase reporter – Wnt-LIGHT cells, luminescence, selectivity assay for Gli-SUFU antagonist project, dose response (AID 651570).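 Also: Wnt-LIGHT reporter cells stimulated with conditioned medium from Wnt3a-producing cells.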 To be noted: read-out: IC50_Mean. (Reporter assays use an easily measured gene product as a stand-in for the process of interest.)
Assay [2] has as its system INS1. The experiment in a line: INS-1E survival protection against cytokine death – cell-based, luminescence, retest, dose response (AID 449756).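 Also: cell death triggered by IL-1 beta plus TNF-alpha plus IFN-gamma mixture; protective hits raise ATP signal compared with cytokine alone wells.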 Particulars: Rattus norvegicus.
Assay [3] concerns the target Dual specificity protein phosphatase 3 (Homo sapiens, UniProt P51452). The assay can be described thus: VHR phosphatase inhibition, dose response, selectivity assay for STEP inhibitor project, biochemical (AID 602374). To be noted: read-out: IC50_Mean.
Assay [4] addresses Tyrosine-protein phosphatase non-receptor type 11 (Homo sapiens, UniProt Q06124). The assay can be described thus: PTPN11 enzyme inhibitors – biochemical, selectivity assay for STEP inhibitor project, dose response (AID 602367). To be noted: read-out: IC50_Mean.
In assay [5] the target is Tyrosine-protein phosphatase non-receptor type 5 (Homo sapiens, UniProt P54829). The assay can be described thus: PTPN5 enzyme inhibition – biochemical, fluorescence intensity, uHTS hits, confirmation (AID 602372). To be noted: read-out: IC50_Mean.
For assay [6], the target named is T1, Mitochondrial peptide methionine sulfoxide reductase (Bos taurus, UniProt P54149).
T1 sequence (P54149 whole entry): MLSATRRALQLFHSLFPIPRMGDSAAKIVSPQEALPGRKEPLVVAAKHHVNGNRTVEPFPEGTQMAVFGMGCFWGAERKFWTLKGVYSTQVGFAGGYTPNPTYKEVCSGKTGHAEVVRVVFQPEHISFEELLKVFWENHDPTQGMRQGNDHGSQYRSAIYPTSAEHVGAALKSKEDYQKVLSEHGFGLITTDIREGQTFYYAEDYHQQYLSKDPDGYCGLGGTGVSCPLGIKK
The experiment in a line: Absorbance-based biochemical high throughput dose response assay for activators of Methionine sulfoxide reductase A (MsrA).

Calls of active or inactive are those of the source. A value given as a limit tells only on which side of the number the result lay.

The term AC50 denotes the midpoint of the concentration-response curve, whichever way the signal moves. As a reminder, the EC50 is the concentration at which the effect is half-maximal.

Chain of Tyrosine-protein phosphatase non-receptor type 11 (Q06124 whole entry): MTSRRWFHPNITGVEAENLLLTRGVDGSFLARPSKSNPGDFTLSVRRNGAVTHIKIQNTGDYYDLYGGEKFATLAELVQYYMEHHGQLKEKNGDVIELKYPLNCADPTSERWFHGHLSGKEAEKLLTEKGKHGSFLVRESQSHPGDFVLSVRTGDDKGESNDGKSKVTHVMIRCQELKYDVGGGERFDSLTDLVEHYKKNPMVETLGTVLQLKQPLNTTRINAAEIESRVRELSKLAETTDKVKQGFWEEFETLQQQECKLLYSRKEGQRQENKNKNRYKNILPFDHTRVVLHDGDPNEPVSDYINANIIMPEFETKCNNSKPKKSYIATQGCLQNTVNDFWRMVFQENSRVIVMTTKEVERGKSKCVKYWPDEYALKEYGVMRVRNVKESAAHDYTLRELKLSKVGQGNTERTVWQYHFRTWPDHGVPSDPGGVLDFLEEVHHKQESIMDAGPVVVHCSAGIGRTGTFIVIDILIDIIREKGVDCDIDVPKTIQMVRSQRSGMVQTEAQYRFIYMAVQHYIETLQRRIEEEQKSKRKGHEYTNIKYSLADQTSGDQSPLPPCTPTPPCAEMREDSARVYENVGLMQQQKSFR
Chain of Dual specificity protein phosphatase 3 (P51452 whole entry): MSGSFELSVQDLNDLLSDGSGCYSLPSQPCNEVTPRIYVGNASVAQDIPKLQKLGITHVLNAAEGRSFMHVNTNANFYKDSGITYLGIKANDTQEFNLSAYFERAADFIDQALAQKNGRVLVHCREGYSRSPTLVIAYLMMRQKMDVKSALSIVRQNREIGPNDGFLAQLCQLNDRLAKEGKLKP
Chain of Protein Wnt-3a (P27467 whole entry): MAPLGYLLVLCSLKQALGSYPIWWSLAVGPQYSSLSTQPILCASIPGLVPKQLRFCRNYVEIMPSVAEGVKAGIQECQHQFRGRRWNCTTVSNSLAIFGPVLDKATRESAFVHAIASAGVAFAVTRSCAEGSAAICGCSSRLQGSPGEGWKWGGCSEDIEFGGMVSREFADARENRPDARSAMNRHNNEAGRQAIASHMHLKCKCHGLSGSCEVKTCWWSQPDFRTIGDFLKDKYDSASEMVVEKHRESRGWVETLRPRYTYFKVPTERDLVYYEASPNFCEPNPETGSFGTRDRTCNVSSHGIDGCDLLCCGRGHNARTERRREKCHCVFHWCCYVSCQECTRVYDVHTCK
Chain of Tyrosine-protein phosphatase non-receptor type 5 (P54829 whole entry): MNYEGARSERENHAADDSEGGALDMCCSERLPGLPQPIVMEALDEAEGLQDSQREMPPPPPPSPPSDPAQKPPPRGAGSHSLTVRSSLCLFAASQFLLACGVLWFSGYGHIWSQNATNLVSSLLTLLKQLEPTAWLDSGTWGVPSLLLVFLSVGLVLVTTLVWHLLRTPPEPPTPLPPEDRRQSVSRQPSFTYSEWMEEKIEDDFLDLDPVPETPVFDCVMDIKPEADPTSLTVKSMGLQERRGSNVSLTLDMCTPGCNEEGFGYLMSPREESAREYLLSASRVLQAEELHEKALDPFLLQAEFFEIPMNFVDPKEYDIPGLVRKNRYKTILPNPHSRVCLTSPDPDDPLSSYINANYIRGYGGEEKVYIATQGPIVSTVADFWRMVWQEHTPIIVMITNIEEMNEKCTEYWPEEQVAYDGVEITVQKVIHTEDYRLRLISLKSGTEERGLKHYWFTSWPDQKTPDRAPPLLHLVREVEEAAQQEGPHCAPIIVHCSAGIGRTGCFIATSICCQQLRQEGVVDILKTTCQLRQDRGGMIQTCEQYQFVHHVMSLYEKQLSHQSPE

On to `CC(C)C(=O)NC(=S)/C=C1/N(C)c2ccccc2C1(C)C`, for which the IC50 in assay [1] was 9.3 µM (active). Besides, the AC50 in assay [2] was 7.53 µM (active).
With `O=C(N/N=C/c1coc2ccccc2c1=O)c1cc2ccccc2o1`, the IC50 in assay [3] was 14.1 µM (active); in assay [4] it was 33.4 µM (inactive); in assay [5], 35.8 µM (inactive).
For `COc1ccc(OC)c(/C=N/N(CCC#N)C2=NS(=O)(=O)c3ccccc32)c1`, the EC50 in assay [6] was > 104 µM (inactive).
